Experiments:
[1] = Parecoxib concentration in synovial joint fluid after Bio-Gel injection in Hoffa's fat pad (HPLC); assay type: in vivo, Wistar rats; conditions: 0.1 ml Bio-Gel containing 500 μg Parecoxib in Hoffa's fat pad
Experimental: After induction of general anaesthesia, both knees of Wistar rats were shaved and prepared for aseptic surgery. The centre of the patella tendon was identified. A 28 G needle with a 1 ml syringe was used to penetrate the centre patella tendon. Directly after the patella tendon is penetrated and 0.1 ml of the Bio-Gel containing 500 μg of Parecoxib was injected in Hoffa's fad pad. Directly after injection, 1 day, 5 days, 10 days and 30 days after injection the rats were sacrificed.
The concentration of parecoxib in the SJF was examined using a high-performance liquid chromatography

[2] = tested on: cartilage only defect on medial femoral condyles; test: Goat cartilage defect repair (MACI / microfracture) with Bio-Gel containing Parecoxib in Hoffa's fatpad; assay type: in vivo, Dutch milk goats; conditions: controlled release from Hoffa's fatpad; summary statement
Experimental: Surgical procedure: Skeletally mature Dutch milk goats were used for this study. During the first operation, both knee joints of the goats were opened using a medial parapatellar incision. Using a 8 mm in diameter dermal punch a cartilage only defect was created on both medial femoral condyles. The cartilage of both sides was minced and after an overnight collagenase treatment, cells were isolated and expanded in monolayer. […] Consequently these cells were seeded and allowed to attach in a collagen carrier for 24 hrs as described earlier as Matrix-supported Autologous Chondrocyte Implantation (MACI). Hereafter a second operation was performed. The knee joints were opened and one the cartilage defect of one knee joint was repaired using the MACI method. The defect in the other knee joint was repaired using microfracturing as described by […] et al. In 10 goats Hoffa's fatpad was injected (as described earlier) with a Bio-Gel containing 1.5 mg of Parecoxib, in 10 goats Hoffa's fatpad was injected (as described earlier) with a Bio-Gel only, and in 10 goats no injection was performed. Goats were allowed full-weight bearing after both surgical procedures. Histological evaluation: 3 months after the second operation, goats were sacrificed. […] Mankin scores for OA grading and O'Driscoll scores for cartilage repair were scored by 2 blinded individuals.

[3] = tested on: anterior cruciate ligament-transected (ACLT) knees; conditions: cited from earlier work
[4] = intra-articular parecoxib injection

intra-articular level of parecoxib ([1]; after 30 days follow): remained stable | time of maximum parecoxib level in the SJF ([1]; time after injection): 1 days
SMILES: CCC(=O)NS(=O)(=O)c1ccc(-c2c(-c3ccccc3)noc2C)cc1 [Parecoxib]
cartilage repair using MACI and microfracturing [2]: significantly improved | cartilage degeneration ([3]; ACLT knees, intra-articular injection): significant inhibition | effect on cartilage and synovium of normal knees ([3]; intra-articular parecoxib alone, naive rats): did not have any effect | glutamate and aspartate levels [3, 4]: reduced | synovial inflammation [3, 4]: suppressed

Reference: US8962666B2, “Method for improving cartilage repair and/or preventing cartilage degeneration in a joint” (Maastricht University, priority 2009, dated 2015)
